This is an account of results in patent US20140255476A1, “COMPOSITIONS, DEVICES, AND METHODS FOR TREATING INFECTIONS” (University of Washington through its Center for …, priority 2011, published 2014).

Data set [1] deals with XL-1 antibiotic resistant bacteria. Conditions: 30 and 60 mg/ml, 16 hr and 40 hr. As to the method:
FIGS. 11A-11D are images of agar plates seeded with XL-1 antibiotic resistant bacteria comparing the effectiveness of sodium hypochlorite (11A and 11C) and calcium hypochlorite (11B and 11D) at 16 hr (11A and 11B) and 40 hr (11C and 11D). Sodium hypochlorite (11A and 11C): 0, water; 1 30 mg/ml with alginate; 2, 60 mg/ml with alginate; 3, 60 mg/ml without alginate; 4, 30 mg/ml without alginate. Calcium hypochlorite (11B and 11D): 0, water; 1 25 mg/ml with alginate; 2, 50 mg/ml with alginate; 3, 50 mg/ml without alginate; 4, 25 mg/ml without alginate.

Another data set relates to onychomycosis. Conditions: topical formulations; do not penetrate the nail; cited from earlier work.
The nature of data set [2]: decomposition of calcium hypochlorite under ambient light. It counts as physicochemical. As to conditions: 200 mg/ml, 37° C., without stabilization in alginate-calcium hydrogel. Here is the method:
In one embodiment, the interactions of calcium hypochlorite and alginate control the release of chlorine over time, which allows prolonged and continuous exposure. Without stabilization of calcium hypochlorite in alginate-calcium hydrogel, calcium hypochlorite at a concentration of 200 mg/ml is decomposed under ambient light within 30 min at 37° C. In a composition containing 1% alginate tested at room temperature (without exposing to light), about 40-50% of chlorine was released over 2 hr test period for all calcium hypochlorite concentrations tested (FIG. 2). […] It is understood that the physical structure of the gel can take the form of particles, sheets, or appropriate structure to optimize the surface suitable for release of the active hypohalite form.

With sodium chlorite, the “effectiveness with vs without alginate” value in data set [1] is on record as “not affected by the presence of alginate”.
In the case of `CN(C/C=C/C#CC(C)(C)C)Cc1cccc2ccccc12` [terbinafine], the effectiveness for onychomycosis result with onychomycosis is on record as “totally ineffective”.
On to `[Ca+2].[O-]Cl.[O-]Cl` [calcium hypochlorite], for which the time to decomposition in data set [2] was ≤ 30 min.
`Clc1ccccc1C(c1ccccc1)(c1ccccc1)n1ccnc1` [clotrimazole]: the effectiveness for onychomycosis result in the data set on onychomycosis is listed as “totally ineffective”.
